# Values of other authors as cited in US20230022136A1, “DIFFUSIVITY CONTRAST AGENTS FOR MEDICAL IMAGING” (priority 2020, published 2023).
# Details: attributed to increased hydrogen bonding of the water molecules
smiles,measurement,value
CC(/C=C/C=C(\C)C(=O)[O-])=C\C=C\C=C(C)\C=C\C=C(/C)C(=O)[O-].[Na+].[Na+] [Trans-Sodium crocetinate],increase of the diffusion coefficient of glucose through water,25-30%
